The source of these data is patent US9321776B2, “Isochromene derivatives as phoshoinositide 3-kinases inhibitors” (CHIESI FARMACEUTICI S.p.A., priority 2013, dated 2016).

What all share (assay): PI3K enzyme inhibitory activity in the cell free assay (ADP-Glo Kinase Assay)
Holding throughout (assay type): biochemical
Background: In ADP-Glo the light output rises with the ADP produced.

One test concerns the target T1, PI3Kα (Homo sapiens, UniProt P42336).
T1 construct: purchased Millipore Ltd (Billerica, Mass.)
Particulars: human recombinant PI3Kα, ATP 50 μM; read-out: PI3K alpha inhibition.

For the next test, the target named is T2, PI3Kβ (Homo sapiens, UniProt P42338).
T2 construct: purchased Millipore Ltd (Billerica, Mass.)
Particulars: human recombinant PI3Kβ, ATP 100 μM; read-out: PI3K beta inhibition.

A further test deals with T3, PI3Kδ (Homo sapiens, UniProt O00329).
T3 construct: purchased Millipore Ltd (Billerica, Mass.)
T3 sequence (O00329 1-1044): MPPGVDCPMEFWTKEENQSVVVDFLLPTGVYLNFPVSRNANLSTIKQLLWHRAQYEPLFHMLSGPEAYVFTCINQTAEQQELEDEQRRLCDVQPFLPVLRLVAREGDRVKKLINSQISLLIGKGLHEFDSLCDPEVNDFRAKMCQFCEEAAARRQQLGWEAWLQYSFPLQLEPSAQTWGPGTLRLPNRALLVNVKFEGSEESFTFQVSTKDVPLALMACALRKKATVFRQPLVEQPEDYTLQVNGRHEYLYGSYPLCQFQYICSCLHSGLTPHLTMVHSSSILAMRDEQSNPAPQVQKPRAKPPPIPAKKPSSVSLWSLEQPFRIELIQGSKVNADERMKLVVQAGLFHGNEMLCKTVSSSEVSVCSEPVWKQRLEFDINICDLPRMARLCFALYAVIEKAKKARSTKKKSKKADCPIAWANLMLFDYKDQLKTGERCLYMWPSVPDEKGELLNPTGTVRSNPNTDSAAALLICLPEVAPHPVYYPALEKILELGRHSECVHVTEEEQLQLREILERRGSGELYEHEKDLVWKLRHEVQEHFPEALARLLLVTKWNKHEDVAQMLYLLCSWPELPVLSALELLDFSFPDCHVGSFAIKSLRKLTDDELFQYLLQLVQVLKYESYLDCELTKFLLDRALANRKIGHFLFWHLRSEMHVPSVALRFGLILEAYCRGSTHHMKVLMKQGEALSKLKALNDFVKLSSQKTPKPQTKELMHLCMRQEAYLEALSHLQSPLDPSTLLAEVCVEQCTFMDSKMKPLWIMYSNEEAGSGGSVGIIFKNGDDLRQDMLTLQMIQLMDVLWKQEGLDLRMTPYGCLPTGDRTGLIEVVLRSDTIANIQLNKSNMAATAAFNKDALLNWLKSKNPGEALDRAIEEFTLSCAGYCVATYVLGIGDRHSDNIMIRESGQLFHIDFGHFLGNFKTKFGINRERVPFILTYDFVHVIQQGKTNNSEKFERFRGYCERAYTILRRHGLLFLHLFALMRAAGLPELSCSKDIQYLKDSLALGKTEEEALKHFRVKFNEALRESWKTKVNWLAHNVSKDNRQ
The conditions noted are these: human recombinant PI3Kδ, ATP 80 μM; read-out: PI3K delta inhibition.

Another test has as its target T4, PI3Kγ (Homo sapiens, UniProt P48736).
T4 construct: purchased Millipore Ltd (Billerica, Mass.)
Particulars: human recombinant PI3Kγ, ATP 30 μM; read-out: PI3K gamma inhibition.

The structures appear in SMILES notation. Structures can show the parent of a compound that is named as a salt. Where only a bound is given, the exact number is not on record here.

T2 sequence (P42338 whole entry): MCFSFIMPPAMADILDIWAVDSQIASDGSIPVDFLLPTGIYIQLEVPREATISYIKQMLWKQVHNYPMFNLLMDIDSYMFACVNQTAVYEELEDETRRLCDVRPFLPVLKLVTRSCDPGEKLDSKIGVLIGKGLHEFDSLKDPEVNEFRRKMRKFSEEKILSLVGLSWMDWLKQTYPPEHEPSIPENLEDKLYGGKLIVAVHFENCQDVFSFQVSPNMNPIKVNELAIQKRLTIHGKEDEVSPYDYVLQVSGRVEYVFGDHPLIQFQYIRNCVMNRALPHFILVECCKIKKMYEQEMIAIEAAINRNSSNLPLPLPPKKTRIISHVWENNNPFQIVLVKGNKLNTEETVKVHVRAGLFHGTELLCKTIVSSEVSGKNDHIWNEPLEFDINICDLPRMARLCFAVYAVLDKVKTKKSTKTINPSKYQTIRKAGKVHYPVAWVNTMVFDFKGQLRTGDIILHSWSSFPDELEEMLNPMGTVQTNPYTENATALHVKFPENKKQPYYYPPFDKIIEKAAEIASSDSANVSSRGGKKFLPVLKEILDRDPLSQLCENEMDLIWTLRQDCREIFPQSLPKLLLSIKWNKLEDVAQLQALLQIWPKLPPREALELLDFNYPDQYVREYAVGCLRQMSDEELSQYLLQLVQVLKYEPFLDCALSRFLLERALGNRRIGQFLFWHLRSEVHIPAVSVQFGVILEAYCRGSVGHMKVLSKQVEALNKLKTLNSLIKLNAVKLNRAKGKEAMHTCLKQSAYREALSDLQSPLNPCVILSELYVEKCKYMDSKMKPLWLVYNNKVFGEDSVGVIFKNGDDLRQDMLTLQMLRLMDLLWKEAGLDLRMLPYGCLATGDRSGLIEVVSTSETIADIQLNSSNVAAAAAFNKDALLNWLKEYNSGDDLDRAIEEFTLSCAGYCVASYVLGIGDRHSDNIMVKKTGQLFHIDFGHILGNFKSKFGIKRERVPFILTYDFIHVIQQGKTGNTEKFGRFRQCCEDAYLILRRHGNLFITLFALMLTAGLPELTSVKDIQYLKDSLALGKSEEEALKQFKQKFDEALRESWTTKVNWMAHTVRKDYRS
T1 sequence (P42336 whole entry): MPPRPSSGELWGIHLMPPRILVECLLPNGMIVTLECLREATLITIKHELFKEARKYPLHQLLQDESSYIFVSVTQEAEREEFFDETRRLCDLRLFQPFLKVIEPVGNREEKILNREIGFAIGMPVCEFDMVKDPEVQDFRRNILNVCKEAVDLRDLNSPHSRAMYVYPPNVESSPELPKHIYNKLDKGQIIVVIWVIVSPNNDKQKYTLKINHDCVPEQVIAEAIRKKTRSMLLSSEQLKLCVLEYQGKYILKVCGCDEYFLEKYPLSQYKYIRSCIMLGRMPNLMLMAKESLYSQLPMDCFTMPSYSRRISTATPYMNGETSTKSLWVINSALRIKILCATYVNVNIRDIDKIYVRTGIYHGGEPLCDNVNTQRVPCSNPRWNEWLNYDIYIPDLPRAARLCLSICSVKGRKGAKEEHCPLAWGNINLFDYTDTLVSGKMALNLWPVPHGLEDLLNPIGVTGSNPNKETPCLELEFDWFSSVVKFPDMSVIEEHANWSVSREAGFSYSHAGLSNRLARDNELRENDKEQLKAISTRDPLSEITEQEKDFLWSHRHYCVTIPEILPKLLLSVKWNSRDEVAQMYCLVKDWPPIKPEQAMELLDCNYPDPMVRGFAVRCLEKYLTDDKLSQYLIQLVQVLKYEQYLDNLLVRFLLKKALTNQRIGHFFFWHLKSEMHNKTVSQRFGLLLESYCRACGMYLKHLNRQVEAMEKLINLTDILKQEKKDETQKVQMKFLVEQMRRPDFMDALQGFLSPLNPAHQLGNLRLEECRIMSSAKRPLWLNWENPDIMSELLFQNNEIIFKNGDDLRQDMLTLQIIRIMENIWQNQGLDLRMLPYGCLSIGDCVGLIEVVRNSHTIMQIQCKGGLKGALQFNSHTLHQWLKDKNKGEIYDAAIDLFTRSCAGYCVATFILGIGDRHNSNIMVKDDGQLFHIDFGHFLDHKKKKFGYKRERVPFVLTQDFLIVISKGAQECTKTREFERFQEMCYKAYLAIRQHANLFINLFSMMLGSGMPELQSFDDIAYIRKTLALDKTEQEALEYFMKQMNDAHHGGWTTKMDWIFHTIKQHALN
T4 sequence (P48736 whole entry): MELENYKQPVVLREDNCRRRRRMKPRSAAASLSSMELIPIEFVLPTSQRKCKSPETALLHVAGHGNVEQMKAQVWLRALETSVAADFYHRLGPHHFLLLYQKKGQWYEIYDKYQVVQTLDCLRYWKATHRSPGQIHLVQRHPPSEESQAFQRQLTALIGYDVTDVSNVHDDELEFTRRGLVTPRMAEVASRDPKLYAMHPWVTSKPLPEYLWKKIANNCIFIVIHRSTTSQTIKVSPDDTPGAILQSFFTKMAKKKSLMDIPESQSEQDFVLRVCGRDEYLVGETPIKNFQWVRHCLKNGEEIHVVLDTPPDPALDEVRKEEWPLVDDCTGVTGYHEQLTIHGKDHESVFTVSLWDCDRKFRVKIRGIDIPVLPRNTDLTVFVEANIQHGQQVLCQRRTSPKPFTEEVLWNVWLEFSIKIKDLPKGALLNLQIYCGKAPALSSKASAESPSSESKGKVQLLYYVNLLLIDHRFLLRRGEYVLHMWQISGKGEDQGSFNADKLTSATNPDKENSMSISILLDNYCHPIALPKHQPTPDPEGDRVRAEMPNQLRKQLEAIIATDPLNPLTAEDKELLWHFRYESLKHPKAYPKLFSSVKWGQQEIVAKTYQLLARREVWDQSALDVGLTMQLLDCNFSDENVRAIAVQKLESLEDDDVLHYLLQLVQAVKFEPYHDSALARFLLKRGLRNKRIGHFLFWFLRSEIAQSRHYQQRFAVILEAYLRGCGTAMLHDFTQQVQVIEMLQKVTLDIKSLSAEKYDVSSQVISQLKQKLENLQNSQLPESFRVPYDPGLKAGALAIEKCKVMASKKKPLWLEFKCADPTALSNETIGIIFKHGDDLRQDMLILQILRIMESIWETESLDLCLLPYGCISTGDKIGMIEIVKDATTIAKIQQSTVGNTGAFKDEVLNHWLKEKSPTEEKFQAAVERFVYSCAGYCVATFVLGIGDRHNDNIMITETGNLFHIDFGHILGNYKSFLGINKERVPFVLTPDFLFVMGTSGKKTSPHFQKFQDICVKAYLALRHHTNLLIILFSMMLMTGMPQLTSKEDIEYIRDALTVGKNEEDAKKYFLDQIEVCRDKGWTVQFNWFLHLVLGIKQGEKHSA

Consider `CC(c1oc(=O)c2ccccc2c1CN1CCOCC1)n1nc(-c2cc(O)cc(F)c2)c2c(N)ncnc21` (stereo not drawn) [Example 130, 3-(1-(4-amino-3-(3-fluoro-5-hydroxyphenyl)-1H-pyrazolo[3,4-d]pyrimidin-1-yl)ethyl)-4-(morpholinomethyl)-1H-isochromen-1-one], for which the IC50 is 10 to 1000 nM at PI3Kα, 10 to 1000 nM at PI3Kβ, under 10 nM on PI3Kδ and 10 to 1000 nM on PI3Kγ.

Regarding `CC(c1oc(=O)c2ccccc2c1-c1ccc(CN2CCN(C)CC2)s1)n1nc(-c2cc(O)cc(F)c2)c2c(N)ncnc21` (stereo not drawn) [Example 135, 3-(1-(4-amino-3-(3-fluoro-5-hydroxyphenyl)-1H-pyrazolo[3,4-d]pyrimidin-1-yl)ethyl)-4-(5-((4-methyl)piperazin-1-yl)methyl)thiophen-2-yl)-1H-isochromen-1-one, dihydrochloride], the IC50 at PI3Kα is 10 to 1000 nM; on PI3Kβ it was 10 to 1000 nM; on PI3Kδ, under 10 nM; at PI3Kγ, 10 to 1000 nM.

With `CC(c1oc(=O)c2ccccc2c1-c1ccc(CCCN(C)C)s1)n1nc(-c2cc(O)cc(F)c2)c2c(N)ncnc21` (stereo not drawn) [Example 136, 3-(1-(4-amino-3-(3-fluoro-5-hydroxyphenyl)-1H-pyrazolo[3,4-d]pyrimidin-1-yl)ethyl)-4-(5-(3-(dimethylamino)propyl)thiophen-2-yl)-1H-isochromen-1-one, Formate], the IC50 on PI3Kα is over 1000 nM; at PI3Kβ, 10 to 1000 nM; on PI3Kδ, under 10 nM; at PI3Kγ, over 1000 nM.

As for `CC(c1oc(=O)c2ccccc2c1-c1cccc(CCCN(C)C)c1)n1nc(-c2cc(O)cc(F)c2)c2c(N)ncnc21` (stereo not drawn) [Example 137, 3-(1-(4-amino-3-(3-fluoro-5-hydroxyphenyl)-1H-pyrazolo[3,4-d]pyrimidin-1-yl)ethyl)-4-(3-(3-(dimethylamino)propyl)phenyl)-1H-isochromen-1-one, Formic Acid], the IC50 on PI3Kα is over 1000 nM; at PI3Kβ, 10 to 1000 nM; at PI3Kδ it was under 10 nM; at PI3Kγ, 10 to 1000 nM.

In the case of `CC(c1oc(=O)c2ccccc2c1-c1ccc(CN2CCN(C)CC2)cc1)n1nc(-c2cc(O)cc(F)c2)c2c(N)ncnc21` (stereo not drawn) [Example 139, 3-(1-(4-amino-3-(3-fluoro-5-hydroxyphenyl)-1H-pyrazolo[3,4-d]pyrimidin-1-yl)ethyl)-4-(4-((4-methylpiperazin-1-yl)methyl)phenyl)-1H-isochromen-1-one, dihydrochloride], the IC50 at PI3Kα is over 1000 nM; on PI3Kβ, over 1000 nM; on PI3Kδ, under 10 nM; at PI3Kγ, over 1000 nM.

For the compound `CC(c1oc(=O)c2ccccc2c1-c1ccc(CN2CCCC2)cc1)n1nc(-c2cc(O)cc(F)c2)c2c(N)ncnc21` (stereo not drawn) [Example 140, 3-(1-(4-amino-3-(3-fluoro-5-hydroxyphenyl)-1H-pyrazolo[3,4-d]pyrimidin-1-yl)ethyl)-4-(4-(pyrrolidin-1-ylmethyl)phenyl)-1H-isochromen-1-one, hydrochloride], the IC50 at PI3Kα is over 1000 nM; at PI3Kβ, 10 to 1000 nM; at PI3Kδ, under 10 nM; on PI3Kγ, over 1000 nM.

On to `CC(c1oc(=O)c2ccccc2c1-c1ccc(CN2CCCCC2)cc1)n1nc(-c2cc(O)cc(F)c2)c2c(N)ncnc21` (stereo not drawn) [Example 141, 3-(1-(4-amino-3-(3-fluoro-5-hydroxyphenyl)-1H-pyrazolo[3,4-d]pyrimidin-1-yl)ethyl)-4-(4-(piperidin-1-ylmethyl)phenyl)-1H-isochromen-1-one, hydrochloride], for which the IC50 on PI3Kα was over 1000 nM; on PI3Kβ, 10 to 1000 nM; on PI3Kδ, under 10 nM; at PI3Kγ, over 1000 nM.

As to `CC(c1oc(=O)c2ccccc2c1-c1cccc(CN2CCN(C)CC2)c1)n1nc(-c2cc(O)cc(F)c2)c2c(N)ncnc21` (stereo not drawn) [Example 142, 3-(1-(4-amino-3-(3-fluoro-5-hydroxyphenyl)-1H-pyrazolo[3,4-d]pyrimidin-1-yl)ethyl)-4-(3-((4-methylpiperazin-1-yl)methyl)phenyl)-1H-isochromen-1-one], the IC50 on PI3Kα was over 1000 nM; at PI3Kβ, over 1000 nM; on PI3Kδ, under 10 nM; on PI3Kγ, over 1000 nM.

`CC(c1oc(=O)c2ccccc2c1C1=CC(C)(C)NC(C)(C)C1)n1nc(-c2cc(O)cc(F)c2)c2c(N)ncnc21` (stereo not drawn) [Example 144, 3-(1-(4-amino-3-(3-fluoro-5-hydroxyphenyl)-1H-pyrazolo[3,4-d]pyrimidin-1-yl)ethyl)-4-(2,2,6,6-tetramethyl-1,2,3,6-tetrahydropyridin-4-yl)-1H-isochromen-1-one hydrochloride]: the IC50 on PI3Kα was over 1000 nM; on PI3Kβ, 10 to 1000 nM; on PI3Kδ, under 10 nM; at PI3Kγ, 10 to 1000 nM.

Consider `CC(c1oc(=O)c2ccccc2c1C1=CC(C)(C)NC(C)(C)C1)n1nc(-c2cncc(O)c2)c2c(N)ncnc21` (stereo not drawn) [Example 145, 3-(1-(4-amino-3-(5-hydroxypyridin-3-yl)-1H-pyrazolo[3,4-d]pyrimidin-1-yl)ethyl)-4-(2,2,6,6-tetramethyl-1,2,3,6-tetrahydropyridin-4-yl)-1H-isochromen-1-one dihydrochloride], for which the IC50 at PI3Kα is 10 to 1000 nM; at PI3Kβ, 10 to 1000 nM; at PI3Kδ it was under 10 nM; at PI3Kγ, 10 to 1000 nM.

As to `CC(c1oc(=O)c2ccccc2c1C1=CCN(C(=O)CCCN(C)C)CC1)n1nc(-c2cc(O)cc(F)c2)c2c(N)ncnc21` (stereo not drawn) [Example 146, 3-(1-(4-amino-3-(3-fluoro-5-hydroxyphenyl)-1H-pyrazolo[3,4-d]pyrimidin-1-yl)ethyl)-4-(1-(4-(dimethylamino)butanoyl)-1,2,3,6-tetrahydropyridin-4-yl)-1H-isochromen-1-one formate], the IC50 is over 1000 nM on PI3Kα, 10 to 1000 nM on PI3Kβ, under 10 nM at PI3Kδ and 10 to 1000 nM at PI3Kγ.

With `CC(c1oc(=O)c2ccccc2c1C1=CCN(C(=O)CN(C)C)CC1)n1nc(-c2cc(O)cc(F)c2)c2c(N)ncnc21` (stereo not drawn) [Example 147, 3-(1-(4-amino-3-(3-fluoro-5-hydroxyphenyl)-1H-pyrazolo[3,4-d]pyrimidin-1-yl)ethyl)-4-(1-(2-(dimethylamino)acetyl)-1,2,3,6-tetrahydropyridin-4-yl)-1H-isochromen-1-one formate], the IC50 at PI3Kα is 10 to 1000 nM; at PI3Kβ it was 10 to 1000 nM; on PI3Kδ it was under 10 nM; on PI3Kγ, 10 to 1000 nM.

For `CC(c1oc(=O)c2ccccc2c1C1=CCN(C(=O)C2CCN(C)CC2)CC1)n1nc(-c2cc(O)cc(F)c2)c2c(N)ncnc21` (stereo not drawn) [Example 148, 3-(1-(4-amino-3-(3-fluoro-5-hydroxyphenyl)-1H-pyrazolo[3,4-d]pyrimidin-1-yl)ethyl)-4-(1-(1-methylpiperidine-4-carbonyl)-1,2,3,6-tetrahydropyridin-4-yl)-1H-isochromen-1-one formate], the IC50 was over 1000 nM at PI3Kα, 10 to 1000 nM on PI3Kβ, under 10 nM at PI3Kδ and 10 to 1000 nM at PI3Kγ.

As to `CC(c1oc(=O)c2ccccc2c1C1=CCN(C(=O)C2CN(C)C2)CC1)n1nc(-c2cc(O)cc(F)c2)c2c(N)ncnc21` (stereo not drawn) [Example 151, 3-(1-(4-amino-3-(3-fluoro-5-hydroxyphenyl)-1H-pyrazolo[3,4-d]pyrimidin-1-yl)ethyl)-4-(1-(1-methylazetidine-3-carbonyl)-1,2,3,6-tetrahydropyridin-4-yl)-1H-isochromen-1-one formate], the IC50 at PI3Kα is over 1000 nM; at PI3Kβ, 10 to 1000 nM; on PI3Kδ it was 10 to 1000 nM; on PI3Kγ, 10 to 1000 nM.

On to `CC(c1oc(=O)c2ccccc2c1C1=CCNCC1)n1nc(-c2cc(O)cc(Cl)c2)c2c(N)ncnc21` (stereo not drawn) [Example 152, 3-(1-(4-amino-3-(3-chloro-5-hydroxyphenyl)-1H-pyrazolo[3,4-d]pyrimidin-1-yl)ethyl)-4-(1,2,3,6-tetrahydropyridin-4-yl)-1H-isochromen-1-one formate], for which the IC50 at PI3Kα was 10 to 1000 nM; at PI3Kβ, 10 to 1000 nM; on PI3Kδ, under 10 nM; on PI3Kγ it was 10 to 1000 nM.
